# US20120010177A1, “MicroRNA Modulators and Method for Identifying And Using The Same” (The Wistar Institute / North Carolina State University, priority 2008, published 2012)
# Where two headings read alike, the source gives them in different places.
# How the values were obtained:
# miR-21 = miR-21 luciferase reporter (Luc-miR-21) screening assay in HeLa cells; assay type: cell-based, human; details: HeLa Luc-miR-21 reporter; for increase of the luciferase signal: 48 hours, compared to untreated cells
# Text: (§1) MicroRNA miR-21 was selected as a target miRNA due to its involvement as an anti-apoptotic factor in cancer cells and its elevated levels in various cancers such as breast, ovarian, and lung cancer as well as glioblastoma (Chan, et al. (2005) Cancer Res. 65:6029). Lentiviral reporter constructs for miRNA activity were assembled by introducing the complementary sequences of mature miR-21 (5′-UAGCUUAUCAGACUGAUGUUGA-3′; SEQ ID NO:13), miR-30A (5′-CUUUCAGUCGGAUGUUUGCAGC-3′; SEQ ID NO:14) as a specificity control, and a linker sequence (a previously present multiple-cloning site with no detectable recognition by natural miRNAs) downstream of a luciferase reporter gene as a negative control (FIG. 1).
# (§2) Luc-miR-21, Luc-miR-30A, and Luc-linker (control) were, by viral infection, introduced into HeLa cells, which express high levels of miR-21, but only low levels of miR-30A (Cheng, et al. (2005) Nucl. Acids Res. 33:1290).
# To illustrate the method of the present invention, a primary screen of >1000 compounds was conducted. The library was composed of a collection of novel compounds and the Library of Pharmacologically Active Compounds (LOPAC library, Sigma-Aldrich, St Louis, Mo.). All compounds were stored at a 10 mM concentration in DMSO to keep the DMSO concentration in the actual screen at 0.1% thereby minimizing toxicity. HeLa cells stably expressing the miR-reporter were treated with DMSO ranging from 0.1-1%. Luciferase signals were determined 48 hours after the treatment.
# HeLa cells (2500 cells) were plated in each well of 384-well plate 24 hour before the addition of compounds. Compounds at 10 μM final concentration were added to each well. Luciferase signal were determined 48 hours after compound treatment. Using this screening assay, compound 1 was identified as a miR-21 antagonist.
# [1] = tested on: A172 cells (glioblastoma cells); experiment: Cell viability assay, A172 cells, alone or with antiproliferative agent; assay type: cell-based; details: Homo sapiens, A 172
# Text: (§3) In these assays, A172 cells (glioblastoma cells) were contacted with a miR-21 inhibitor either alone or in combination with a conventional antiproliferative agent (i.e., 5-fluorouracil or curcumin). At the concentrations indicated, no toxic effects on HEK293T (human embryonic kidney) cells were observed.
# [2] = tested on: HEK293T (human embryonic kidney) cells; experiment: Cell viability assay, HEK293T cells; assay type: cell-based; details: 10 μM Compound
# Text: as §3
# mature miR-93 = experiment: Quantitative RT-PCR of mature miR-93; assay type: cell-based, human; details: for mature miR-93 level, % of DMSO control: Table 2
# Text: (§4) UNG (Applied Biosystems). […] (Sigma).
# mature miR-30 = experiment: Quantitative RT-PCR of mature miR-30; assay type: cell-based, human; details: for mature miR-30 level (% of DMSO control): Table 2
# Text: as §4
# mature miR-21 = experiment: Quantitative RT-PCR of mature miR-21; assay type: cell-based, human; details: for miR-21 RT PCR* (% Decrease as compared to DMSO control): Table 2; for mature miR-21 expression: HCT116 colon cancer cells and A172 glioblastoma cells, FIG. 6B
# Text: as §4
# Luc-Linker control = experiment: Luc-linker control luciferase reporter in HeLa cells; assay type: cell-based, human; details: 10 μM, relative to DMSO control
# Text: as §1, §2
# (§5) It was subsequently determined whether Compound 2 was a specific inhibitor of miR-21 or whether it could interfere with the general miRNA biogenesis pathway. Thus, HeLa cells stably expressing both the miR-30 luciferase reporter construct and miR-30 were treated with Compound 2.
# [3] = tested on: HCT116 colon cancer cells; experiment: Cell proliferation of HCT116 cells, drug combinations; assay type: cell-based, human
# Text: The % activity indicates % live cell activity.
# miR-30 = miR-30 luciferase reporter in HeLa cells stably expressing miR-30; assay type: cell-based, human; details: HeLa cells stably expressing miR-30 reporter and miR-30, 10 μM
# Text: as §1
# The specificity of the reporter system was tested by assaying cells which contained both the Luc-miR-30A reporter and a construct expressing exogenous miR-30.
# as §5
# [4] = tested on: primary miR-21 (pri-miR-21); experiment: Quantitative RT-PCR of primary miR-21; assay type: cell-based, human; details: for primary miR-21 expression: HCT116 colon cancer cells and A172 glioblastoma cells, FIG. 6A
# Text: as §4
# [5] = 10 μM Compound + 5FU 0.5 μM, read-out: Cell Viability A172 Cells, Compound + 5FU (0.5 μM)
# [6] = 10 μM Compound + Curcumin 10 μM, read-out: Cell Viability A172 Cells, Compound + Curcumin (10 μM)
# [7] = 10 μM Compound alone, read-out: Cell Viability A172 Cells, Compound
# [8] = HeLa cells, 10 μM, relative to DMSO
# [9] = MDA-MB-231, MCF-7 and A172 cell lines
Compound,"viability at 10 µM [1, 5] [%]","viability at 10 µM [1, 6] [%]","viability at 10 µM [1, 7] [%]",Cell Viability HEK293T Cells [2] [%],"mature miR-93 level, % of DMSO control (mature miR-93) [%]",mature miR-30 level (% of DMSO control) (mature miR-30) [%],miR-21 RT PCR* (% Decrease as compared to DMSO control) (mature miR-21) [%],further results
Nc1ccc(/N=N/c2ccc([N+](=O)[O-])cc2)cc1 [Compound 1],,,,,,,,increase of the luciferase signal (miR-21; 10 μM): 251%
C#CCNC(=O)c1ccc(NNc2ccccc2)cc1 [Compound 3],52,56,75,95,56,85,39,
"C#CCNC(=O)c1ccc(/N=N/c2ccccc2)cc1 [Compound 2, (E)-4-(Phenyldiazenyl)-N-(prop-2-ynyl)benzamide]",8,12,84,98,115,110,22,"luciferase signal in HeLa cells expressing the Luc-Linker control (Luc-Linker control): did not affect the luciferase signal; proliferation of HCT116 colon cancer cells, combination with 5-FU ([3]; FIG. 5A): synergistically decrease; proliferation of HCT116 colon cancer cells, combination with Curcumin ([3]; FIG. 5B): synergistically decrease; level of endogenous mature miR-93 (mature miR-93; [8]): not reduced; mature miR-93 level (mature miR-93; [9]): no effect; level of exogenous mature miR-30 (mature miR-30; [8]): not reduced; mature miR-30 level (mature miR-30; [9]): no effect; mature miR-21 level (mature miR-21; [9]): suppressed; luciferase signal of miR-30 luciferase reporter (miR-30): no increase of the luciferase signal was detected; fold increase of the luciferase signal (miR-21; 10 μM): 5 fold; increase of the luciferase signal (miR-21; 10 μM): 485%; EC50 (miR-21; Homo sapiens, concentration dependent, read-out: EC50 of increase of luciferase signal): 2000 nM; reduction of primary miR-21 (pri-miR-21) level ([4]; HeLa cells, 10 μM, compared to DMSO control): 87%; primary miR-21 level [4, 9]: suppressed"
"O=c1[nH]cc(F)c(=O)[nH]1 [Compound 5-FU, 5-fluorouracil, reference compound]",,,,,,,,mature miR-21 expression (mature miR-21): increased; primary miR-21 expression [4]: increased
COc1ccc2c(c1[N+](=O)[O-])CCC1C2CC[C@]2(C)C(=O)CCC12 (some centres unmarked) [Compound 6],47,39,71,97,83,73,34,
Cn1c2c(c3ccccc3c1=O)C(=O)c1cc3c(cc1-2)OCO3 [Compound 4],62,54,66,98,116,136,12,
"COc1cc(/C=C/C(=O)CC(=O)/C=C/c2ccc(O)c(OC)c2)ccc1O [Curcumin, curcumin, reference compound]",,,,,,,,mature miR-21 expression (mature miR-21): increased; primary miR-21 expression [4]: increased
